Measurements taken from patent US9024017B2, “Octahydro-cyclopentapyrrolyl antagonists of CCR2” (Janssen Pharmaceutica NV, priority 2012, dated 2015).

Molecular target: T1, CCR2 (Homo sapiens, UniProt P41597)
T1 construct: host or cells: THP-1 (human monocytic cell line)
Assay: MCP-1 Receptor Binding Assay in THP-1 Cells
Settings: read-out: MCP1B_v3 IC50
Procedure, shortened: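 Human monocytic THP-1 cells incubated 2 h at 30 °C with 0.5 nM 125I-MCP-1 and varying concentrations of test compound or unlabelled MCP-1. Cells filter-harvested and counted by scintillation; blank subtracted, compared with vehicle; nonspecific binding with 1 μM cold MCP-1.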

T1 sequence (P41597 whole entry): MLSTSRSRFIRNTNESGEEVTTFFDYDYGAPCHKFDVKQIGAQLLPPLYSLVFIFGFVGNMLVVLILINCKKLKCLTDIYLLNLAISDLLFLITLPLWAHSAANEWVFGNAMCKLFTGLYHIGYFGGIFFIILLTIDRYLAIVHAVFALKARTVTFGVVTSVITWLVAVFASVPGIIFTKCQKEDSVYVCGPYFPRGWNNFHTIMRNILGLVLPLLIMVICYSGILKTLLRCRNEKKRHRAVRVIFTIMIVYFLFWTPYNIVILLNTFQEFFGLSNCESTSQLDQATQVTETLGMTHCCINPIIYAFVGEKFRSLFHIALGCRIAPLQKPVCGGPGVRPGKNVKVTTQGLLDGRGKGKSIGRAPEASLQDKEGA

IC50 [nM] | Structure (SMILES)
10 | COC1COCCC1N[C@@H]1C[C@H]2CN(C(=O)OCCNC(C)=O)C[C@@]2(C(=O)N2CCc3ccc(C(F)(F)F)cc3C2)C1 (relative stereo) [Example 55, (3aR,5R,6aR)-2-Acetamidoethyl 5-(((3S*,4S*)-3-methoxytetrahydro-2H-pyran-4-yl)amino)-3a-(7-(trifluoromethyl)-1,2,3,4-tetrahydroisoquinoline-2-carbonyl)hexahydrocyclopenta[c]pyrrole-2(1H)-carboxylate]
120 | COC1COCCC1N[C@@H]1C[C@H]2CN(C(=O)OCc3ccccc3)C[C@@]2(C(=O)N2CCc3ncc(C(F)(F)F)cc3C2)C1 (relative stereo) [Example 56, (3aR,5R,6aR)-Benzyl 5-(((3S*,4S*)-3-methoxytetrahydro-2H-pyran-4-yl)amino)-3a-(3-(trifluoromethyl)-5,6,7,8-tetrahydro-1,6-naphthyridine-6-carbonyl)hexahydrocyclopenta[c]pyrrole-2(1H)-carboxylate]
2030 | CNC(=S)N(C1CCOCC1OC)[C@@H]1C[C@H]2CN(C(=O)OCc3ccccc3)C[C@@]2(C(=O)N2CCc3ncc(C(F)(F)F)cc3C2)C1 (relative stereo) [Example 57, (3aR,5R,6aR)-Benzyl 5-(1-((3S*,4S*)-3-methoxytetrahydro-2H-pyran-4-yl)-3-methylthioureido)-3a-(3-(trifluoromethyl)-5,6,7,8-tetrahydro-1,6-naphthyridine-6-carbonyl)hexahydrocyclopenta[c]pyrrole-2(1H)-carboxylate]
200 | COC1COCCC1N[C@@H]1C[C@H]2CN(C(=O)OCc3ccc(C#N)cc3)C[C@@]2(C(=O)N2CCc3ncc(C(F)(F)F)cc3C2)C1 (relative stereo) [Example 58, (3aR,5R,6aR)-4-Cyanobenzyl 5-(((3S*,4S*)-3-methoxytetrahydro-2H-pyran-4-yl)amino)-3a-(3-(trifluoromethyl)-5,6,7,8-tetrahydro-1,6-naphthyridine-6-carbonyl)hexahydrocyclopenta-[c]pyrrole-2(1H)-carboxylate]
100 | COc1cccc(COC(=O)N2C[C@@H]3C[C@@H](NC4CCOCC4OC)C[C@]3(C(=O)N3CCc4ncc(C(F)(F)F)cc4C3)C2)c1 (relative stereo) [Example 60, (3aR,5R,6aR)-3-Methoxybenzyl 5-(((3S*,4S*)-3-methoxytetrahydro-2H-pyran-4-yl)amino)-3a-(3-(trifluoromethyl)-5,6,7,8-tetrahydro-1,6-naphthyridine-6-carbonyl)hexahydrocyclopenta-[c]pyrrole-2(1H)-carboxylate]
390 | COc1ccc(COC(=O)N2C[C@@H]3C[C@@H](NC4CCOCC4OC)C[C@]3(C(=O)N3CCc4ncc(C(F)(F)F)cc4C3)C2)cc1 (relative stereo) [Example 61, (3aR,5R,6aR)-4-Methoxybenzyl 5-(((3S*,4S*)-3-methoxytetrahydro-2H-pyran-4-yl)amino)-3a-(3-(trifluoromethyl)-5,6,7,8-tetrahydro-1,6-naphthyridine-6-carbonyl)hexahydrocyclopenta-[c]pyrrole-2(1H)-carboxylate]
60 | COC1COCCC1N[C@@H]1C[C@H]2CN(C(=O)OCCC(C)(C)O)C[C@@]2(C(=O)N2CCc3ncc(C(F)(F)F)cc3C2)C1 (relative stereo) [Example 62, (3aR,5R,6aR)-3-Hydroxy-3-methylbutyl 5-(((3S*,4S*)-3-methoxytetrahydro-2H-pyran-4-yl)amino)-3a-(3-(trifluoromethyl)-5,6,7,8-tetrahydro-1,6-naphthyridine-6-carbonyl)-hexahydrocyclopenta[c]pyrrole-2(1H)-carboxylate]
50 | COC1COCCC1N[C@@H]1C[C@H]2CN(C(=O)OCCNC(C)=O)C[C@@]2(C(=O)N2CCc3ncc(C(F)(F)F)cc3C2)C1 (relative stereo) [Example 63, (3aR,5R,6aR)-2-Acetamidoethyl 5-(((3S*,4S*)-3-methoxytetrahydro-2H-pyran-4-yl)amino)-3a-(3-(trifluoromethyl)-5,6,7,8-tetrahydro-1,6-naphthyridine-6-carbonyl)hexahydrocyclopenta[c]pyrrole-2(1H)-carboxylate]
40 | COC1COCCC1N[C@@H]1C[C@H]2CN(C(=O)OCC(C)C)C[C@@]2(C(=O)N2CCc3ncc(C(F)(F)F)cc3C2)C1 (relative stereo) [Example 64, (3aR,5R,6aR)-Isobutyl 5-(((3S*,4S*)-3-methoxytetrahydro-2H-pyran-4-yl)amino)-3a-(3-(trifluoromethyl)-5,6,7,8-tetrahydro-1,6-naphthyridine-6-carbonyl)hexahydro-cyclopenta[c]pyrrole-2(1H)-carboxylate]
400 | COC1COCCC1N[C@@H]1C[C@H]2CN(C(C)=O)C[C@@]2(C(=O)N2CCc3ncc(C(F)(F)F)cc3C2)C1 (relative stereo) [Example 66, 1-((3aR,5R,6aR)-5-(((3S*,4S*)-3-Methoxytetrahydro-2H-pyran-4-yl)amino)-3a-(3-(trifluoromethyl)-5,6,7,8-tetrahydro-1,6-naphthyridine-6-carbonyl)hexahydrocyclopenta-[c]pyrrol-2(1H)-yl)ethanone]
130 | COC1COCCC1N[C@@H]1C[C@H]2CN(C(=O)COc3ccccc3)C[C@@]2(C(=O)N2CCc3ncc(C(F)(F)F)cc3C2)C1 (relative stereo) [Example 68, 1-((3aR,5R,6aR)-5-(((3S*,4S*)-3-Methoxytetrahydro-2H-pyran-4-yl)amino)-3a-(3-(trifluoromethyl)-5,6,7,8-tetrahydro-1,6-naphthyridine-6-carbonyl)hexahydrocyclopenta-[c]pyrrol-2(1H)-yl)-2-phenoxyethanone]
150 | COC1COCCC1N[C@@H]1C[C@H]2CN(C(=O)c3ccccc3)C[C@@]2(C(=O)N2CCc3ncc(C(F)(F)F)cc3C2)C1 (relative stereo) [Example 69, ((3aR,5R,6aR)-2-Benzoyl-5-(((3S*,4S*)-3-methoxytetrahydro-2H-pyran-4-yl)amino)-octahydrocyclopenta[c]pyrrol-3a-yl)(3-(trifluoromethyl)-7,8-dihydro-1,6-naphthyridin-6(5H)-yl)methanone]
80 | COC1COCCC1N[C@@H]1C[C@H]2CN(C(=O)c3ncco3)C[C@@]2(C(=O)N2CCc3ncc(C(F)(F)F)cc3C2)C1 (relative stereo) [Example 70, ((3aR,5R,6aR)-5-(((3S*,4S*)-3-Methoxytetrahydro-2H-pyran-4-yl)amino)-2-(oxazole-2-carbonyl)octahydrocyclopenta[c]pyrrol-3a-yl)(3-(trifluoromethyl)-7,8-dihydro-1,6-naphthyridin-6(5H)-yl)methanone]
160 | COC1COCCC1N[C@@H]1C[C@H]2CN(C(=O)c3ccno3)C[C@@]2(C(=O)N2CCc3ncc(C(F)(F)F)cc3C2)C1 (relative stereo) [Example 71, Isoxazol-5-yl((3aR,5R,6aR)-5-(((3S*,4S*)-3-methoxytetrahydro-2H-pyran-4-yl)amino)-3a-(3-(trifluoromethyl)-5,6,7,8-tetrahydro-1,6-naphthyridine-6-carbonyl)hexahydrocyclopenta-[c]pyrrol-2(1H)-yl)methanone]
